# Experimental data taken from patent US10273290B2, “Hydrocarbon double-stapled stabilized HIV-1 GP41 heptad repeat domain peptides” (DANA-FARBER CANCER INSTITUTE, INC., priority 2009, dated 2019).
# “Also recorded” adds a separate entry of the source. Bridge positions count the residues as written; N and C are the ends. Square brackets hold non-standard residues; d marks the D form. Peptide text beside a SMILES is read from it. S5 = C=CCCC[C@](C)(N)C(=O)O; Nle = CCCC[C@H](N)C(=O)O
# Key:
# Chymotrypsin, pH 7 = experiment: Chymotrypsin, pH 7
# From the text: Table printed on a drawing sheet, FIG. 17C
# Title: Chymotrypsin, pH 7
# First reader's note: The table also serves as the legend of the plot of fraction intact over time; the line and marker symbols are left out.
# pepsin = experiment: Protease resistance assay, pepsin at pH 2
# Summary of the method: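 Peptide from a 1 mM DMSO stock was incubated with pepsin in its appropriate buffer. Intact peptide was quantified over time by serial LC-MS injections, normalized to a 100 μM acetylated tryptophan carboxamide internal standard. Half-life came from nonlinear regression of the exponential decay.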
# [1] = Pharmacokinetics in mice, intravenous or oral gavage; type: in vivo, Male C57/BL6 mice
# Experimental: Peptides were incubated (5-10 μg) with mouse plasma at 37° C. or injected (10, mg/kg) by tail vein into male C57/BL6 mice. […] For ex vivo serum stability studies, peptide half-lives were calculated by nonlinear regression analysis of exponential decay curves plotted using Prism software (Graphpad). In vivo plasma concentrations at the indicated time points were used to calculate plasma half-life, peak plasma levels, total plasma clearance, and apparent volume of distribution using noncompartmental analysis.
# Blood samples withdrawn at 30 minutes by retro-orbital bleed were subjected to quantitation using LC/MS-based blood tests.
# [2] = test system: HIV-1 strains HXBc2, ADA, and HXBc2P 3.2; experiment: Luciferase-based HIV-1 infectivity assay, three strains; type: cell-based
# Experimental: Also the direct inhibitory activity of modified polypeptides and the antibodies targeted thereto can be quantified based upon their capacity to directly block HIV infection of CD4-positive and CCR5-expressing canine thymus cells. […] The identical experiment is performed with the amphotropic murine leukemia virus (AMLV), to monitor for any nonspecific effects of the modified polypeptides or antibodies.
# HIV-1 infectivity assays were performed using known methods (Madani et al., 2007 Inhibition of human immunodeficiency virus envelope glycoprotein-mediated single cell lysis by low-molecular-weight antagonists of viral entry. J Virol, 81: 532-538; and Si et al., 2001 Envelope glycoprotein determinants of neutralization resistance in a simian-human immunodeficiency virus (SHIV-HXBc2P 3.2) derived by passage in monkeys. J Virol, 75:4208-4218; both incorporated herein by reference). […] Virus-containing supernatants were harvested 24-30 hr after transfection, filtered, aliquoted, and stored at −80° C. Target cells were seeded at a density of 6×10^3 cells/well in 96-well plates 24 hours prior to infection. Cf2Th-CD4-CCR5 cells were used for infections by viruses with the ADA, YU2, and A-MLV envelope glycoproteins, and Cf2Th-CD4-CXCR4 cells used for HXBc2, HXBc2P 3.2, and A-MLV. On the day of infection, the structured peptides (0-3 μM) were added to recombinant viruses (10,000 RT units) to a final volume of 50 μL and incubated at 37° C. for 30 min. Media was then removed and the target cells incubated with virus-peptide mixture for 48 hours at 37° C. The media was again removed and the cells lysed with 30 μL of passive lysis buffer (Promega) and three freeze-thaw cycles.
# Recombinant HIV-1 bearing the envelope glycoproteins from three distinct HIV-1 strains, HXBc2, ADA, and HXBc2P 3.2, and a negative control virus bearing the amphotropic murine leukemia virus (A-MLV) envelope glycoproteins, were evaluated.
# in vivo = details: mouse, plasma, iv
# From the text: Plasma concentration, mean+standard error; ND, nondetectable.
compound,measurement,setting,value
"CCCC[C@H](NC(C)=O)C(=O)N[C@H](C(=O)N[C@@H](Cc1c[nH]c2ccccc12)C(=O)N[C@@]1(C)CCCC=CCCC[C@@](C)(C(=O)N[C@@H](CCC(=O)O)C(=O)N[C@H](C(=O)N[C@@H](CC(N)=O)C(=O)N[C@@H](CC(N)=O)C(=O)N[C@@H](Cc2ccc(O)cc2)C(=O)N[C@H](C(=O)N[C@@H](CO)C(=O)N[C@@H](CC(C)C)C(=O)N[C@H](C(=O)N[C@@H](Cc2c[nH]cn2)C(=O)N[C@@H](CO)C(=O)N[C@@H](CC(C)C)C(=O)N[C@H](C(=O)N[C@@H](CCC(=O)O)C(=O)N[C@@H](CCC(=O)O)C(=O)N[C@@H](CO)C(=O)N[C@@H](CCC(N)=O)C(=O)N[C@@H](CC(N)=O)C(=O)N[C@@H](CCC(N)=O)C(=O)N[C@@]2(C)CCCC=CCCC[C@@](C)(C(=O)N[C@@H](CCC(N)=O)C(=O)N[C@@H](CCC(=O)O)C(=O)N[C@@H](CC(C)C)C(=O)N[C@@H](CC(C)C)C(=O)N[C@@H](CCC(=O)O)C(N)=O)NC(=O)[C@H](CC(N)=O)NC(=O)[C@H](CCCCN)NC(=O)[C@H](CCC(=O)O)NC2=O)[C@@H](C)CC)[C@@H](C)CC)[C@@H](C)O)[C@@H](C)CC)NC(=O)[C@H](CC(=O)O)NC(=O)[C@H](Cc2c[nH]c3ccccc23)NC(=O)[C@H](CCC(=O)O)NC1=O)[C@@H](C)O [SAH-gp41(626-662)(A, F)] (Ac-[Nle]TW[S5]EWD[S5]EINNYTSLIHSLIEESQNQ[S5]EKN[S5]QELLE-NH2; staple 4-8, 28-32; N-terminus and C-terminus assumed)",Half-Life,"Chymotrypsin, pH 7",335 min
same,half-life at 25 μM,"pepsin; pepsin (isolated protease) in buffer, pH 2",2040 min
same,"acid protease resistance, in words",pepsin; pepsin at pH 2,striking acid protease resistance
same,"level measured in the blood, fold of unmodified peptide","[1]; 10 mg/kg, blood samples at 30 minutes",more than 6 fold
same,"in vivo stability, in words","[1]; intravenous, 10 mg/kg, plasma concentrations of intact peptide",marked in vivo stability
same,fold decrease in clearance,[1]; noncompartmental analysis,about 10 fold
same,fold enhancement in area under the curve (AUC),"[1]; noncompartmental analysis, serial blood draws",about 10 fold
same,intact peptide in blood/plasma after oral administration,"[1]; oral gavage, 30 minutes after administration",measurable and dose-responsive levels; also recorded: measurable and dose-responsive plasma concentrations
same,"anti-HIV-1 (anti-viral) activity, in words",[2],potent anti-viral activity
same,Cmax,in vivo,140 µg/mL
same,CL,,1.0 mL/min/kg
